# Results published in patent publication US11299760B2 (Amgen Inc., priority 2013, dated 2022).
# How the values were obtained:
# [1] = tested on: recombinant CHO cell line producing an antibody (MAb A); test: six day batch assay, glycan analysis (HILIC); type: cell-based, Chinese hamster; design: Total HM: unit not given here; conditions: for Man5 / Man6 / Man7 / Man8a / Man8b / Total HM: day 6
# Experimental: Cells were centrifuged at 1500 rpm for five minutes and seeded at 2×10^6 cells per ml into batch production medium in a 24 deep-well plate at a final volume of 3 ml.
# Cell density and viability were measured by Guava easyCyte flow cytometer (Milipore, Billerica, Mass.) with the ViaCount application. Cultures were spun down, supernatants were filtered on 0.4 micron filters, and were analyzed for titer and glycan distribution.
# For glycan analysis, Peptide-N-Glycosidase F (PNGAse F)—released N-linked glycans from protein A purified antibodies were labeled with 2-aminobenzoic acid (2-AA) and separated by HILIC (hydrophilic interaction liquid chromatography) in-line with a fluorescence detector. The separation was performed using a Waters Acquity UPLC (Waters, Milford, Mass.). In-line mass spectrometry (MS), using an ion trap mass spectrometer (LTQ; Thermo Scientific, Waltham, Mass.) in positive mode, was incorporated to accommodate mass determination of species. Glycans were injected and bound to the column in high organic conditions and were then eluted with an increasing gradient of an aqueous ammonium formate buffer. Fast separation times were achieved using a […] small particle column format (Acquity UPLC BEH Glycan Column, 2.1×100 mm; Waters, Milford, Mass.).
# [2] = tested on: production cell lines (MAb A, MAb B, MAb C, MAb D); test: mock perfusion assay, glycan analysis, all four production cell lines; type: cell-based, Chinese hamster
# Experimental: Mock perfusion assay is a small scale, plate-based assay that is designed to mimic perfusion conditions in bioreactors through daily medium exchanges. For a 10-day mock perfusion assay, passaging cultures of various production cell lines were diluted 1:5 into chemically defined base perfusion medium in a 24 deep-well plate at a final volume of 3 ml per well. Mock perfusion was initiated on day 3 when the cells were spun down at 1000 rpm for 5 minutes and 25% of each spent culture medium was exchanged with the equivalent volume of fresh perfusion media. Subsequent medium exchange percentages were 40% on days 4-8 and 50% on day 9. Exchanged supernatants were stored at 4° C. prior to analysis.
# Analysis of cell culture parameters was also started on day 3; viable cell density and viability were analyzed using the ViaCount Guava assay as previously described. Glucose was measured daily starting on day 3 and was maintained at 12 g/l. Stored supernatants were analyzed for antibody titer as described previously. Samples of supernatant fluid from days 6, 8 and 10 were also analyzed for the presence and type of glycans by HILIC analysis.
# The cell lines used included three production cell lines that are known to generate mAbs with low high mannose glycans (MAb A, MAb B and MAb C) and one production cell line that consistently produces product with high levels of high mannose glycans (MAb D). […]
smiles,measurement,setting,value
CC[C@@]1([C@@H]2O[C@@H]([C@H]3O[C@@](O)(CO)[C@H](C)C[C@@H]3C)C[C@@H]2C)CC[C@H]([C@]2(C)CC[C@]3(C[C@H](O)[C@@H](C)[C@@H]([C@@H](C)[C@@H](OC)[C@H](C)C(=O)O)O3)O2)O1 [monensin],Man5,[1]; 0.1 nM monensin added day 1,0.775%
same,Man6,[1]; 0.1 nM monensin added day 1,0.09%
same,Man7,[1]; 0.1 nM monensin added day 1,0%
same,Man8a,[1]; 0.1 nM monensin added day 1,0.31%
same,Man8b,[1]; 0.1 nM monensin added day 1,0%
same,Total HM,[1]; 0.1 nM monensin added day 1,0.8
same,Man5,[1]; 0.5 nM monensin added day 1,0.785%
same,Man6,[1]; 0.5 nM monensin added day 1,0.07%
same,Man7,[1]; 0.5 nM monensin added day 1,0%
same,Man8a,[1]; 0.5 nM monensin added day 1,0.3%
same,Man8b,[1]; 0.5 nM monensin added day 1,0%
same,Total HM,[1]; 0.5 nM monensin added day 1,0.85
same,Man5,[1]; 1 nM monensin added day 1,0.89%
same,Man6,[1]; 1 nM monensin added day 1,0.13%
same,Man7,[1]; 1 nM monensin added day 1,0.04%
same,Man8a,[1]; 1 nM monensin added day 1,0.29%
same,Man8b,[1]; 1 nM monensin added day 1,0%
same,Total HM,[1]; 1 nM monensin added day 1,1.05
same,Man5,[1]; 5 nM monensin added day 1,1.12%
same,Man6,[1]; 5 nM monensin added day 1,0.18%
same,Man7,[1]; 5 nM monensin added day 1,0.27%
same,Man8a,[1]; 5 nM monensin added day 1,0.37%
same,Man8b,[1]; 5 nM monensin added day 1,0%
same,Total HM,[1]; 5 nM monensin added day 1,1.35
same,Man5,[1]; 10 nM monensin added day 1,1.485%
same,Man6,[1]; 10 nM monensin added day 1,0.16%
same,Man7,[1]; 10 nM monensin added day 1,0%
same,Man8a,[1]; 10 nM monensin added day 1,0.315%
same,Man8b,[1]; 10 nM monensin added day 1,0%
same,Total HM,[1]; 10 nM monensin added day 1,1.6
same,increase of total high mannose glycans on the recombinant antibody,[1]; 25 nM bolus on day 0 or 200 nM or 100 nM bolus on day 3,6 to 30 fold
same,Man5,[1]; 25 nM monensin added day 1,6.43%
same,Man6,[1]; 25 nM monensin added day 1,0.59%
same,Man7,[1]; 25 nM monensin added day 1,0.59%
same,Man8a,[1]; 25 nM monensin added day 1,0.39%
same,Man8b,[1]; 25 nM monensin added day 1,0.115%
same,Total HM,[1]; 25 nM monensin added day 1,7.65
same,"effect on high mannose and on cell growth, viability and titer",[1]; 50 nM incubated for six days and 500 nM incubated for three days,"large increases in high mannose at the expense of cell growth, viability and titer"
same,Man5,[1]; 50 nM monensin added day 1,15.725%
same,Man6,[1]; 50 nM monensin added day 1,4.64%
same,Man7,[1]; 50 nM monensin added day 1,4.73%
same,Man8a,[1]; 50 nM monensin added day 1,0.8%
same,Man8b,[1]; 50 nM monensin added day 1,2.02%
same,Total HM,[1]; 50 nM monensin added day 1,25.1
same,Man5,[1]; 100 nM monensin added day 3,19.365%
same,Man6,[1]; 100 nM monensin added day 3,7.475%
same,Man7,[1]; 100 nM monensin added day 3,6.795%
same,Man8a,[1]; 100 nM monensin added day 3,0.8%
same,Man8b,[1]; 100 nM monensin added day 3,2.635%
same,Total HM,[1]; 100 nM monensin added day 3,33.65
same,Man5,[1]; 200 nM monensin added day 3,18.585%
same,Man6,[1]; 200 nM monensin added day 3,4.975%
same,Man7,[1]; 200 nM monensin added day 3,3.795%
same,Man8a,[1]; 200 nM monensin added day 3,0.61%
same,Man8b,[1]; 200 nM monensin added day 3,1.17%
same,Total HM,[1]; 200 nM monensin added day 3,27.35
same,Man5,[1]; 500 nM monensin added day 3,11.735%
same,Man6,[1]; 500 nM monensin added day 3,1.545%
same,Man7,[1]; 500 nM monensin added day 3,1.045%
same,Man8a,[1]; 500 nM monensin added day 3,0.355%
same,Man8b,[1]; 500 nM monensin added day 3,0.2%
same,Total HM,[1]; 500 nM monensin added day 3,14.3
same,impact on high mannose or cell culture parameters,[1]; monensin concentrations between 0.1 to 10 nM,no impacts on high mannose or cell culture parameters
same,effect on high mannose glycans,"[2]; all four antibody products, mock perfusion",increased high mannose glycans on all four antibody products tested in a dose dependent manner
same,increase of high mannose levels compared to the control samples,"[2]; antibodies collected on day 10, depending on the monensin dose",1.5 to 15 fold
